Laboratory results published in patent US5428048A, “Aryl-N-hydroxyureas as inhibitors of 5-lipoxygenase and anto-arteriosclerotic agents” (American Home Products Corporation, priority 1993, dated 1995).

Columns and labels:
5-Lipoxygenase = target: T1, 5-Lipoxygenase (Homo sapiens, UniProt P09917); test: Inhibition of 5-Lipoxygenase in Human Whole Blood (ionophore A23187-stimulated LTB4); type: cell-based
T1 construct: endogenous in cells; host or cells: whole blood of male human donors (results per 10^6 neutrophils)
T1 sequence (P09917 1-674): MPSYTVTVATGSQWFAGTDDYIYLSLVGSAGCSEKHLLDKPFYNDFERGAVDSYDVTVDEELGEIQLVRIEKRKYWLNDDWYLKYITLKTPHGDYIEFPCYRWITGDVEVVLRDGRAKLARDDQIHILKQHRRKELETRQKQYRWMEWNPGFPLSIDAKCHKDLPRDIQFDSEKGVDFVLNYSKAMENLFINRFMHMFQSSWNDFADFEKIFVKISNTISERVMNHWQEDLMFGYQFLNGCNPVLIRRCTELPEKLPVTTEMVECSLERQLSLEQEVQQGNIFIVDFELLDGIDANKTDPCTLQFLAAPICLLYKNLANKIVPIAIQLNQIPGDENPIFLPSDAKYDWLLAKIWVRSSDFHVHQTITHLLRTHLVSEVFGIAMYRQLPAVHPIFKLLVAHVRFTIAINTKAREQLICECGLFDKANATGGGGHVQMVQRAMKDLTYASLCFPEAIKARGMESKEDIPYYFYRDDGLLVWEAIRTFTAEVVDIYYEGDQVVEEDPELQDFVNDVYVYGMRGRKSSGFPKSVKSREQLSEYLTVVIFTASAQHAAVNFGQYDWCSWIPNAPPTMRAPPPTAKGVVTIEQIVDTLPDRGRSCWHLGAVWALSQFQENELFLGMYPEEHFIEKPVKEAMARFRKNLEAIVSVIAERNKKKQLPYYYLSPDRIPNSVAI
Method: 1. Inhibition of 5-Lipoxygenase in Human Whole Blood
Blood is obtained in 50-100 ml quantities from male donors. White blood cell counts and differentials are made. Two ml of blood are placed in a 15 ml polypropylene test tube. Test compounds are solubilized in dimethylsulfoxide and diluted in 1:10 in 10% bovine serum albumin in phosphate buffered saline, pH 7.4 resulting in a final dimethylsulfoxide concentration of 0.1% in the blood. Then, solutions of test compounds are added to the blood in a shaking water bath at 37° C. for 10 minutes prior to the addition of 30 μM calcium ionophore (A23187, Sigma). After ionophore administration, whole blood samples are mixed and incubated for 20 minutes at 37° C. in a shaking water bath. Incubation is terminated by placing samples in an ice bath and immediately adding ethylene glycol-bis-(β-aminoethyl ether)-N, N,N',N'-tetraacetic acid (10 mM). Samples are mixed and centrifuged at 1200×g for 15 minutes at […]. Preparation of samples for evaluation by RIA or ELISA is carded out by the following protocol. Plasma is removed from sample tubes, placed in 15 ml polypropylene test tubes containing 8 ml methanol, and then vortexed to precipitate protein. Samples are stored at -70° C. overnight. The next day, samples are centrifuged at 200×g for 15 minutes at 4° C. to pellet the precipitate. Samples are dried in a Savant SpeedVac Concentrator, Model SVC 200H, reconstituted to original volume with ice cold RIA or ELISA buffer, and stored at -70° C. until assayed. The assay for eicosanoids (LTB4, TxB2, and PGE2) is performed as described by the manufacturer of the [^3 H]-RIA kit or ELISA kit (LTB4 -Amersham, TxB2 and PGE2 - Caymen Chemical).
The total eicosanoid level in 2 ml of blood is calculated and reported as ng/10^6 neutrophils. Significance is determined by a one-way analysis of variance with least significant difference (LSD) comparisons to control (p≤0.05) and IC50 's (μM) are determined by regression analysis (Finney, 1978). Drug effects are expressed as percent change from control values.

LTB4 Synthesis = test: Reverse Passive Arthus Reaction (pleurisy, LTB4 in pleural exudate); type: in vivo, male Lewis rats
Method: 3. Reverse Passive Arthus Reaction
A reverse passive Arthus reaction is induced in the pleural cavity of male Lewis rats (150°-200 g; fasted overnight prior to use) by the intravenous administration of bovine serum albumin (BSA; 4 mg/0.2 ml) followed 30 minutes later by the injection of rabbit anti-BSA (1 mg/0.2 ml; lyophilized IgG fraction; Organon Teknika, West Chester, Pa.) into the right pleural space under halothane anesthesia. Drugs or vehicle (0.5% Tween-80) control are administered orally in a volume of 1 ml/100 g body weight at 1 hour prior to the anti-BSA. Animals are sacrificed at either the time of peak eicosanoid production (i.e. 5 minutes after anti-BSA for immunoreactive TxB2, 10 minutes for immunoreactive LTB4, 20 minutes for immunoreactive LTC4) or at the time of peak neutrophil infiltration (4 hours after anti-BSA) by CO2 inhalation. The pleural cavity is then exposed, the fluid exudate removed by gentle vacuum aspiration and the volume of exudate is recorded. For the determination of cellular infiltration, the pleural cavity is rinsed with 3 ml of 0.1% EDTA in sterile saline, and the recovered wash is pooled with the exudate. Cell number is determined on a model ZBI Coulter counter. For determination of eicosanoid production, undiluted pleural exudate is microfuged and the supernatant is extracted with ethanol (8-10 times volume). Extracts are either stored at -20° C., or are evaporated to dryness under a stream of N2 and reconstituted in radioimmunoassay (RIA) buffer.
Eicosanoids are quantitated by RIA according to the procedure specified by the RIA kit manufacturer (Advanced Magnetics, Cambridge, MA). Briefly, 100 μl of ^3 H-labeled eicosanoid and 100 μl of specific antibody ,are sequentially added to 100 μl of extracted pleural exudate in BGG-phosphate buffer which contains 0.01M phosphate, 0.1% bovine gamma globulin and 0.1% sodium azide at pH 7.0. Antibody-bound eicosanoid is separated from unbound eicosanoid by the addition of 750 μl of dextran (0.4%)-coated charcoal (Norit A) containing 0.1% sodium azide. The mixture is centrifuged at 2000 RPM at 5° C. for 15 minutes to pellet the charcoal and adsorbed unbound eicosanoid. Antibody-bound labeled eicosanoid is quantitated by counting in a liquid scintillation counter, and is correlated to concentration by a standard curve.

inhibition at 1 µM (5-Lipoxygenase) [%]	inhibition at 10 µM (5-Lipoxygenase; 10 μM) [%]	Structure (SMILES)	% Inhibition LTB4 Synthesis (LTB4 Synthesis; 25 mg/kg p.o.) [%]	% Inhibition LTB4 Synthesis (LTB4 Synthesis; 10 mg/kg p.o.) [%]
55	–	Cc1oc(-c2ccccc2)nc1CCOc1ccc(CN(O)C(N)=O)cc1 [Example 1]	35	–
–	60	Cc1oc(-c2ccccc2)nc1CCOc1ccc(C(C)N(O)C(N)=O)cc1 (stereo not shown) [Example 4]	–	–
70	–	NC(=O)N(O)Cc1ccc(OCCc2noc(-c3ccccc3)n2)cc1 [Example 21, 1-hydroxy-1-[4-[2-(5-phenyl-[1,2,4]-oxadiazol-3-yl)-ethoxy]-benzyl]-urea]	19	–
47	–	Cc1oc(-c2ccc(C(F)(F)F)cc2)nc1CCOc1ccc(CN(O)C(N)=O)cc1 [Example 13, 1-Hydroxy-1-[4-[2-[5-methyl-2(4-trifluoromethyl-phenyl)-oxazol-4-yl]-ethoxy]benzyl]-urea]	–	91
